Measurements reported in patent US20240415918A1, “Polypeptide and its use as a CCK receptor agonist/antagonist” (Centre for Regenerative Medicine & Health, Hong Kong …, priority 2021, published 2024).
Where a SMILES comes first, the peptide text is derived from it. [ ]: non-standard residue; d: D form. The star is where a group is joined. dTrp(5-OH) = N[C@H](Cc1c[nH]c2ccc(O)cc12)C(=O)O; NMeW = CN[C@@H](Cc1c[nH]c2ccccc12)C(=O)O; Phe(3-Br) = N[C@@H](Cc1cccc(Br)c1)C(=O)O; dNMeW = CN[C@H](Cc1c[nH]c2ccccc12)C(=O)O; Fmoc = O=C(OCC1c2ccccc2-c2ccccc21)*; Ahp(2) = CCCCC[C@H](N)C(=O)O; NMeNle = CCCC[C@H](NC)C(=O)O; Nle = CCCC[C@H](N)C(=O)O

Assays:
[1] = target: T1, CCK-B receptors (CHO-CCK) (Homo sapiens, UniProt P32239); experiment: Calcium flux (Fluo-8) antagonist test on CHO-CCK model cells in presence of CCK8; assay type: cell-based
T1 construct: expressed in transfected cells; host or cells: CHO (CHO-CCK model cells)
T1 sequence (P32239 1-447): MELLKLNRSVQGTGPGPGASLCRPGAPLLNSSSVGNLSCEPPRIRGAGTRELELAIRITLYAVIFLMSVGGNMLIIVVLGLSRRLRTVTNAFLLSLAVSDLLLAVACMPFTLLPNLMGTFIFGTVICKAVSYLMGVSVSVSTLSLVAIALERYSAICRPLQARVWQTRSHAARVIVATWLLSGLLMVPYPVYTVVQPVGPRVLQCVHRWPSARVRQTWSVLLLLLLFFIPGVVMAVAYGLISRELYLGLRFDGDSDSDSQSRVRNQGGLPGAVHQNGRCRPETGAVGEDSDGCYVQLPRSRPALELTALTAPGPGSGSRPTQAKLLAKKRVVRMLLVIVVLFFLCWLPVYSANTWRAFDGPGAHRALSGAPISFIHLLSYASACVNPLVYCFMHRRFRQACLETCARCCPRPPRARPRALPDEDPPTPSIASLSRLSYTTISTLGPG
Method: The compound was formulated to a 10 mM mother liquor with DMSO, and then diluted into a series of 9 concentrations with a 3-fold gradient to form a 1000× stock solution. […] Prepare 1×Fluo-8 analysis buffer: mix 9 mL of HHBS, 1 mL of 10× Pluronic F127 Plus and 20 μL of Fluo-8 thoroughly for later use. • 3. Add Fluo-8 dye working solution to the cell plate, 100 μL/well. First incubate in a 37° C. incubator for 30 min, and then take it out and incubate at room temperature in the dark for 30 min. • 4. In the process of incubating cells, the compounds to be detected were prepared with HHBS. • 5. […] The agonism/antagonism EC50 of the compound can be obtained by plotting the fitting curve with the agonism/antagonism percentage as Y-axis and the concentration of the compound as X-axis.

[2] = target: T1, CCK-B receptors (CHO-CCK); experiment: Calcium flux (Fluo-8) agonist test on CHO-CCK model cells; assay type: cell-based; details: for EC50: CHO-CCK cells; for Agonistic Activity (%) at 10 μM: compound at 10 μM, percentage of signal of 20 nM CCK8 alone
In short: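 Agonist-mode Fluo-8 calcium flux read on CHO-CCK cells after dye loading 30 min at 37 °C plus 30 min at room temperature.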

[3] = compound together with 10 nM CCK8
[4] = compound alone, 100% = 20 nM CCK8
[5] = Fluo-8 calcium flux, 100% control = 20 nM CCK8
[6] = in presence of 10 nM CCK8, bound in μM
[7] = Fluo-8 calcium flux, bound in μM
[8] = compound together with 10 nM CCK8, bound in μM

Row | SMILES | EC50 [1, 3] [µM] | EC50 [2, 4] [µM] | EC50 ([1]; in presence of 10 nM CCK8) [µM] | EC50 [2, 5] [µM] | also measured
1 | CSCC[C@H](NC(=O)[C@@H](CC(C)C)NC(C)=O)C(=O)N[C@@H](CC(=O)O)C(=O)N[C@@H](Cc1cccc(Br)c1)C(N)=O [HT-183, Ac-D-Leu-Met-Asp-Phe(3-Br)-NH2] (Ac-[dL]MD[Phe(3-Br)]-NH2) | 9.41 | 4.46 |  |  | 
2 | COC(=O)C[C@H](NC(=O)[C@H](CCSC)NC(=O)[C@H](N)Cc1c[nH]c2ccccc12)C(=O)N[C@@H](Cc1cccc(Br)c1)C(N)=O [HT-80, D-Trp-Met-Asp(Ome)-Phe(3-Br)-NH2] | 0.807 | 0.572 |  |  | Agonistic Activity (%) at 10 μM [2]: 57.83%
3 | CSCC[C@H](NC(=O)[C@H](N)Cc1c[nH]c2ccccc12)C(=O)N[C@@H](CC(=O)O)C(=O)N[C@@H](Cc1cccc(I)c1)C(N)=O [HT-28, D-Trp-Met-Asp-Phe(3-I)-NH2] | 0.149 | 0.154 |  |  | Agonistic Activity (%) at 10 μM [2]: 49.93%
4 | CCCC[C@@H](C(=O)N[C@@H](CC(=O)O)C(=O)N[C@@H](Cc1cccc(Br)c1)C(N)=O)N(C)C(=O)[C@H](Cc1c[nH]c2ccccc12)N(C)C(=O)OCC1c2ccccc2-c2ccccc21 [HT-200, Fmoc-(N-Me-Trp)-(N-Me-Nle)-Asp-Phe(3-Br)-NH2] (Fmoc-[NMeW][NMeNle]D[Phe(3-Br)]-NH2) |  |  | 1.77 | 0.616 | 
5 | CSCC[C@H](NC(=O)[C@H](N)Cc1c[nH]c2ccccc12)C(=O)N[C@@H](CC(=O)O)C(=O)N[C@@H](Cc1cccc(Cl)c1)C(N)=O [HT-26, D-Trp-Met-Asp-Phe(3-Cl)-NH2] | 0.635 | 0.0784 |  |  | Agonistic Activity (%) at 10 μM [2]: 85.75%
6 | CSCC[C@H](NC(=O)[C@H](Cc1ccc(O)cc1)NC(C)=O)C(=O)NCC(=O)N[C@@H](Cc1c[nH]c2ccccc12)C(N)=O [HT-207, Ac-Tyr-Met-Gly-Trp-NH2] (Ac-YMGW-NH2) |  |  |  |  | EC50 [1, 6]: > 10 µM; EC50 [2, 7]: > 10 µM
7 | CCCCC[C@H](NC(=O)[C@@H](Cc1c[nH]c2ccccc12)N(C)C(=O)OCC1c2ccccc2-c2ccccc21)C(=O)N[C@@H](CC(=O)O)C(=O)N[C@@H](Cc1cccc(Br)c1)C(N)=O [HT-258, Fmoc-(N-Me-Trp)-Pa-Asp-Phe(3-Br)-NH2] (Fmoc-[dNMeW][Ahp(2)]D[Phe(3-Br)]-NH2) |  |  | 1.04 | 0.0226 | 
8 | CSCC[C@H](NC(=O)[C@H](Cc1c[nH]c2ccccc12)NC(C)=O)C(=O)N[C@@H](CC(=O)O)C(=O)N[C@@H](Cc1cccc(Br)c1)C(=O)N[C@@H](C)C(N)=O [HT-201, Ac-D-Trp-Met-Asp-Phe(3-Br)-Ala-NH2] |  |  | 3.6 | 4.29 | 
9 | CSCC[C@H](NC(=O)[C@@H](Cc1cc[nH]c1)NC(C)=O)C(=O)N[C@@H](CC(=O)O)C(=O)N[C@@H](Cc1cccc(Br)c1)C(N)=O [HT-181, Ac-D-His-Met-Asp-Phe(3-Br)-NH2] |  | 3.9 |  |  | EC50 [1, 8]: > 10 µM
10 | CSCC[C@H](NC(=O)[C@@H](Cc1ccc(O)cc1)NC(C)=O)C(=O)N[C@@H](CC(=O)O)C(=O)N[C@@H](Cc1cccc(Br)c1)C(N)=O [HT-182, Ac-D-Tyr-Met-Asp-Phe(3-Br)-NH2] (Ac-[dY]MD[Phe(3-Br)]-NH2) | 3.3 | 0.421 |  |  | 
11 | CS(=O)(=O)CC[C@H](NC(=O)[C@H](N)Cc1c[nH]c2ccccc12)C(=O)N[C@@H](CC(=O)O)C(=O)N[C@@H](Cc1cc(F)c(F)c(F)c1)C(N)=O [HT-74, D-Trp-Met(O2)-Asp-Phe(3,4,5-TriF)-NH2] | 8.42 | 11 |  |  | Agonistic Activity (%) at 10 μM [2]: 55.05%
12 | CCCC[C@H](NC(=O)[C@@H](Cc1c[nH]c2ccc(O)cc12)NC(C)=O)C(=O)N[C@@H](CCC(=O)O)C(=O)N[C@@H](Cc1cccc(Br)c1)C(N)=O [HT-240, Ac-(5-HTP)-Nle-Glu-Phe(3-Br)-NH2] (Ac-[dTrp(5-OH)][Nle]E[Phe(3-Br)]-NH2) |  |  |  | 0.527 | EC50 [1, 6]: > 10 µM
13 | CC[C@H](C)[C@H](NC(=O)[C@H](CCC(=O)O)NC(=O)[C@H](CC(N)=O)NC(=O)[C@@H](NC(=O)[C@H](CC(C)C)NC(=O)[C@H](CCC(=O)O)NC(=O)[C@H](CO)NC(=O)[C@H](CCC(=O)O)NC(C)=O)[C@@H](C)O)C(=O)N1CCC[C@H]1C(=O)N[C@@H](C)C(=O)N[C@@H](CCC(=O)O)C(=O)N[C@H](Cc1c[nH]c2ccccc12)C(=O)N[C@@H](CCSC)C(=O)N[C@@H](CC(=O)O)C(=O)N[C@@H](Cc1cccc(Br)c1)C(N)=O [HT-219, Ac-Glu-Ser-Glu-Leu-Thr-Asn-Glu-lle-Pro-Ala-Glu-D-Trp-Met-Asp-Phe(3-Br)-NH2] (Ac-ESELTNEIPAE[dW]MD[Phe(3-Br)]-NH2) |  |  | 2.58 | 0.327 | 
14 | CSCC[C@H](NC(=O)[C@H](N)Cc1c[nH]c2ccccc12)C(=O)N[C@@H](CC(=O)O)C(=O)N[C@@H](Cc1ccccc1[N+](=O)[O-])C(N)=O [HT-24, D-Trp-Met-Asp-Phe(2-NO2)-NH2] | 0.624 | 0.206 |  |  | Agonistic Activity (%) at 10 μM [2]: 50.60%
15 | CCCC[C@H](NC(=O)[C@@H](Cc1c[nH]c2ccccc12)N(C)C(=O)OCC1c2ccccc2-c2ccccc21)C(=O)N[C@@H](CC(=O)OC)C(=O)N[C@@H](Cc1cccc(Br)c1)C(N)=O [HT-253, Fmoc-(N-Me-Trp)-Nle-Asp(O-Me)-Phe(3-Br)-NH2] (Fmoc-[dNMeW][Nle]D(OMe)[Phe(3-Br)]-NH2) |  |  | 1.92 | 0.744 | 
16 | C[S+]([O-])CC[C@H](NC(=O)[C@H](N)Cc1c[nH]c2ccccc12)C(=O)N[C@@H](CC(=O)O)C(=O)N[C@@H](Cc1ccc(F)cc1)C(N)=O (stereo partly drawn) [HT-53, D-Trp-Met(O)-Asp-Phe(4-F)-NH2] | 8.88 |  |  |  | Agonistic Activity (%) at 10 μM [2]: 30.00%
17 | CCCC[C@H](NC(=O)[C@@H](Cc1c[nH]c2ccccc12)N(C)C(=O)OCC1c2ccccc2-c2ccccc21)C(=O)N[C@@H](CC(=O)O)C(=O)N[C@@H](Cc1cccc(Br)c1)C(N)=O [HT-249, Fmoc-(N-Me-D-Trp)-Nle-Asp-Phe(3-Br)-NH2] (Fmoc-[dNMeW][Nle]D[Phe(3-Br)]-NH2) |  |  | 4.55 | 0.00226 | 
18 | CSCC[C@H](NC(=O)[C@H](Cc1ccc(O)cc1)NC(=O)[C@H](CC(=O)O)NC(C)=O)C(=O)NCC(N)=O [HT-206, Ac-Asp-Tyr-Met-Gly-NH2] (Ac-DYMG-NH2) |  |  |  |  | EC50 [1, 6]: > 10 µM; EC50 [2, 7]: > 10 µM
19 | CCCC[C@H](NC(=O)[C@H](Cc1c[nH]c2ccccc12)NC(C)=O)C(=O)N[C@@H](CCC(=O)O)C(=O)N[C@@H](Cc1cccc(Br)c1)C(N)=O [HT-238, Ac-D-Trp-Nle-Glu-Phe(3-Br)-NH2] |  |  | 28.2 | 0.0344 | 
20 | CCCC[C@H](NC(=O)[C@H](Cc1c[nH]c2ccccc12)NC(=O)OCC1c2ccccc2-c2ccccc21)C(=O)N[C@@H](CC(=O)O)C(=O)N[C@@H](Cc1cccc(Br)c1)C(N)=O [HT-198, Fmoc-Trp-Nle-Asp-Phe(3-Br)-NH2] (Fmoc-W[Nle]D[Phe(3-Br)]-NH2) |  |  | 0.908 | 0.205 | 
21 | CCCC[C@H](NC(=O)[C@H](Cc1c[nH]c2ccccc12)NC(=O)CNC(=O)[C@H](CCCC)NC(C)=O)C(N)=O [HT-213, Ac-Nle-Gly-Trp-Nle-NH2] (Ac-[Nle]GW[Nle]-NH2) |  |  | 4.92 | 0.533 | 
22 | CSCC[C@H](NC(=O)[C@@H](Cc1c[nH]c2ccccc12)NC(C)=O)C(=O)N[C@@H](CCC(=O)O)C(=O)N[C@@H](Cc1cccc(Br)c1)C(N)=O [HT-186, Ac-D-Trp-Met-Glu-Phe(3-Br)-NH2] (Ac-[dW]ME[Phe(3-Br)]-NH2) | 7.71 | 1.34 |  |  | 
23 | CSCC[C@H](NC(=O)[C@H](Cc1c[nH]c2ccccc12)NC(C)=O)C(=O)N[C@@H](CC(=O)O)C(=O)N[C@@H](Cc1c[nH]cn1)C(N)=O [HT-191, Ac-Trp-Met-Asp-His-NH2] (Ac-WMDH-NH2) |  |  |  |  | EC50 [1, 8]: > 10 µM; EC50 ([2]; compound alone, bound in μM): > 10 µM
24 | CSCC[C@H](NC(=O)[C@H](N)Cc1c[nH]c2ccccc12)C(=O)N[C@@H](CC(=O)O)C(=O)N[C@@H](Cc1ccc(I)cc1)C(N)=O [HT-37, D-Trp-Met-Asp-Phe(4-I)-NH2] | 1.22 | 0.864 |  |  | Agonistic Activity (%) at 10 μM [2]: 52.04%
25 | CSCC[C@H](NC(=O)[C@H](Cc1c[nH]c2ccccc12)NC(=O)CNC(C)=O)C(=O)N[C@@H](CC(=O)O)C(N)=O [HT-211, Ac-Gly-Trp-Met-Asp-NH2] (Ac-GWMD-NH2) |  |  |  |  | EC50 [1, 6]: > 10 µM; EC50 [2, 7]: > 10 µM
26 | CSCC[C@H](NC(=O)[C@H](Cc1c[nH]c2ccccc12)NC(C)=O)C(=O)N[C@@H](CC(=O)O)C(=O)N[C@@H](CCC(=O)O)C(N)=O [HT-197, Ac-Trp-Met-Asp-Gln-NH2] |  |  | 1.67 |  | 
